The NIST ThermoML archive (doi:10.1021/je800460a)

Assay: wn = mass fraction of the nth substance listed
Conditions: 101 kPa, Liquid

NC(CO)(CO)CO [2-amino-2-(hydroxymethyl)-1,3-propanediol] + O
Conditions | mass density, w1 = 0.0217 [kg/m3] | mass density, w1 = 0.051 [kg/m3] | mass density, w1 = 0.103 [kg/m3] | mass density, w1 = 0.158 [kg/m3] | mass density, w1 = 0.217 [kg/m3] | viscosity, w1 = 0.0217 [mPa·s] | viscosity, w1 = 0.051 [mPa·s] | viscosity, w1 = 0.103 [mPa·s] | viscosity, w1 = 0.158 [mPa·s] | viscosity, w1 = 0.217 [mPa·s]
298 K | 1001.3 | 1009 | 1021.6 | 1033.6 | 1046.5 | 0.913 | 0.995 | 1.148 | 1.353 | 1.605
303 K | 999.6 | 1007.4 | 1019.2 | 1031.8 | 1044.2 | 0.874 | 0.94 | 1.059 | 1.223 | 1.449
313 K | 994.9 | 1002.8 | 1014.6 | 1026.8 | 1038.9 | 0.733 | 0.799 | 0.884 | 1.008 | 1.172
323 K | 988.1 | 996 | 1008.2 | 1019.9 | 1032.7 | 0.6 | 0.65 | 0.711 | 0.808 | 0.93
